# In paper PMC9395488, “First-in-human study of IM156, a novel potent biguanide oxidative phosphorylation (OXPHOS) inhibitor, in patients with advanced solid tumors” (Investigational New Drugs, 2022):
# Experiments:
# [1] = Urine pharmacokinetics of IM156 in patients; assay type: in vivo, human; settings: for % Dose Recovered / CLr / Total Amount Excreted (Ae): urine
# SD rats = settings: 2018, cited from earlier work
# rodent bone marrow = settings: ref ImmunoMet, 2018; cited from earlier work
# [2] = SD rats, 50, 100/75, or 150/100 mg/kg QOD oral gavage; ref ImmunoMet, 2018; cited from earlier work
# [3] = major metabolic organs such as lung, liver, kidney; cited from earlier work
# [4] = tested on: GC lines including MKN-74; set-up: method as in ImmunoMet, 2018; settings: Eleven GC lines including MKN-74; ref ImmunoMet, 2018; cited from earlier work
# beagle dogs = settings: ref ImmunoMet, 2018, cited from earlier work
# [5] = Day 27, cohort 1, 100 mg QOD, n<3
# [6] = Day 27, cohort 7, 1200 mg QD, n<3
# [7] = 150 mg/kg/dose QOD oral, between Days 8 and 10, ref ImmunoMet
# [8] = oral QOD over 27 days (14 doses), ref ImmunoMet
smiles,measurement,setting,value
NC(=Nc1ccc(OC(F)(F)F)cc1)N=C(N)N1CCCC1 [IM156],IM156 excreted in the urine,"[1]; Day 1, 200—1200 mg QOD, approximately",8–10%
same,% Dose Recovered,"[1]; Day 1, cohort 1, 100 mg QOD",1.79 ± 0.620%
same,CLr,"[1]; Day 1, cohort 1, 100 mg QOD",6.16 ± 5.25 L/h
same,Total Amount Excreted (Ae),"[1]; Day 1, cohort 1, 100 mg QOD",1790 ± 620 µg
same,% Dose Recovered,"[1]; Day 1, cohort 2, 200 mg QOD",10.0 ± 1.57%
same,CLr,"[1]; Day 1, cohort 2, 200 mg QOD",6.69 ± 0.709 L/h
same,Total Amount Excreted (Ae),"[1]; Day 1, cohort 2, 200 mg QOD",20000 ± 3150 µg
same,% Dose Recovered,"[1]; Day 1, cohort 3, 400 mg QOD",7.90 ± 2.90%
same,CLr,"[1]; Day 1, cohort 3, 400 mg QOD",9.41 ± 6.80 L/h
same,Total Amount Excreted (Ae),"[1]; Day 1, cohort 3, 400 mg QOD",31600 ± 11600 µg
same,% Dose Recovered,"[1]; Day 1, cohort 4, 800 mg QOD",7.86 ± 4.25%
same,CLr,"[1]; Day 1, cohort 4, 800 mg QOD",10.4 ± 6.93 L/h
same,Total Amount Excreted (Ae),"[1]; Day 1, cohort 4, 800 mg QOD",62900 ± 34000 µg
same,% Dose Recovered,"[1]; Day 1, cohort 5, 1200 mg QOD",9.11 ± 12.9%
same,CLr,"[1]; Day 1, cohort 5, 1200 mg QOD",7.89 ± 9.01 L/h
same,Total Amount Excreted (Ae),"[1]; Day 1, cohort 5, 1200 mg QOD",109000 ± 155000 µg
same,% Dose Recovered,"[1]; Day 1, cohort 6, 800 mg QD",7.96 ± 5.94%
same,CLr,"[1]; Day 1, cohort 6, 800 mg QD",7.92 ± 2.62 L/h
same,Total Amount Excreted (Ae),"[1]; Day 1, cohort 6, 800 mg QD",63700 ± 47500 µg
same,% Dose Recovered,"[1]; Day 1, cohort 7, 1200 mg QD",8.79 ± 2.05%
same,CLr,"[1]; Day 1, cohort 7, 1200 mg QD",7.60 ± 4.02 L/h
same,Total Amount Excreted (Ae),"[1]; Day 1, cohort 7, 1200 mg QD",105000 ± 24600 µg
same,% Dose Recovered,[1]; [5],4.32%
same,CLr,[1]; [5],4.46 L/h
same,Total Amount Excreted (Ae),[1]; [5],4320 µg
same,% Dose Recovered,"[1]; Day 27, cohort 2, 200 mg QOD",13.9 ± 2.34%
same,CLr,"[1]; Day 27, cohort 2, 200 mg QOD",6.83 ± 1.58 L/h
same,Total Amount Excreted (Ae),"[1]; Day 27, cohort 2, 200 mg QOD",27700 ± 4680 µg
same,% Dose Recovered,"[1]; Day 27, cohort 3, 400 mg QOD",16.2 ± 11.4%
same,CLr,"[1]; Day 27, cohort 3, 400 mg QOD",8.68 ± 1.52 L/h
same,Total Amount Excreted (Ae),"[1]; Day 27, cohort 3, 400 mg QOD",64700 ± 45600 µg
same,% Dose Recovered,"[1]; Day 27, cohort 4, 800 mg QOD",16.2 ± 9.80%
same,CLr,"[1]; Day 27, cohort 4, 800 mg QOD",11.2 ± 6.94 L/h
same,Total Amount Excreted (Ae),"[1]; Day 27, cohort 4, 800 mg QOD",129000 ± 78400 µg
same,% Dose Recovered,"[1]; Day 27, cohort 5, 1200 mg QOD",18.7 ± 10.6%
same,CLr,"[1]; Day 27, cohort 5, 1200 mg QOD",10.9 ± 7.79 L/h
same,Total Amount Excreted (Ae),"[1]; Day 27, cohort 5, 1200 mg QOD",225000 ± 128000 µg
same,% Dose Recovered,"[1]; Day 27, cohort 6, 800 mg QD",34.8 ± 6.56%
same,CLr,"[1]; Day 27, cohort 6, 800 mg QD",8.72 ± 3.01 L/h
same,Total Amount Excreted (Ae),"[1]; Day 27, cohort 6, 800 mg QD",279000 ± 52500 µg
same,% Dose Recovered,[1]; [6],21.0%
same,CLr,[1]; [6],7.16 L/h
same,Total Amount Excreted (Ae),[1]; [6],252000 µg
same,% Dose Recovered,"[1]; Fed 1, cohort 7, 1200 mg",5.42 ± 3.51%
same,CLr,"[1]; Fed 1, cohort 7, 1200 mg",5.16 ± 3.51 L/h
same,Total Amount Excreted (Ae),"[1]; Fed 1, cohort 7, 1200 mg",65100 ± 42100 µg
same,tolerability,"SD rats; 50 mg/kg/dose QOD oral gavage, 27 days, ref ImmunoMet",well tolerated
same,"preterminal euthanasia, females",SD rats; [7],3/15
same,"preterminal euthanasia, males",SD rats; [7],2/15
same,no-observed-adverse-effect level (NOAEL),SD rats; [8],50 mg/kg/dose
same,severely toxic dose in 10% of the rats (STD10),SD rats; [8],100 mg/kg/dose
same,genotoxicity in in vivo micronucleus test,rodent bone marrow,not genotoxic
same,dose proportionality of exposure based on AUClast,[2],more than dose-proportional
same,dose proportionality of exposure based on Cmax,[2],less than dose-proportional
same,tissue concentrations compared to plasma,[3],30–80 fold
same,sensitivity of GC lines to single agent,[4],significant sensitivity
same,tolerability,"beagle dogs; beagle dogs, 20, 40, or 80 mg/kg/dose QOD oral gavage, 27 days",tolerated and did not result in morbidity/mortality
same,highest non-severely toxic dose (HNSTD),"beagle dogs; beagle dogs, oral QOD over 27 days (14 doses), highest dose tested",≥ 80 mg/kg
